From ChEMBL document CHEMBL4610040, “Addressing hERG activity while maintaining favorable potency, selectivity and pharmacokinetic properties of PPARδ modulators” (Bioorg Med Chem Lett, 2020)

Key:
hERG (KCNH2) = hERG (KCNH2) (Homo sapiens, UniProt Q12809); assay: Inhibition of human ERG expressed in HEK293 cells at 10 uM by semi-automatic patch clamp assay relative to control; format: cell-based; conditions: HEK293 cells that express hERG
[1] = molecular target: T1, Peroxisome proliferator-activated receptor alpha (Homo sapiens, UniProt Q07869); assay: Transactivation of GAL4-fused human PPARalpha expressed in African green monkey CV1 cells by luciferase reporter gene assay; format: cell-based, CV-1
T1 sequence (Q07869 whole entry): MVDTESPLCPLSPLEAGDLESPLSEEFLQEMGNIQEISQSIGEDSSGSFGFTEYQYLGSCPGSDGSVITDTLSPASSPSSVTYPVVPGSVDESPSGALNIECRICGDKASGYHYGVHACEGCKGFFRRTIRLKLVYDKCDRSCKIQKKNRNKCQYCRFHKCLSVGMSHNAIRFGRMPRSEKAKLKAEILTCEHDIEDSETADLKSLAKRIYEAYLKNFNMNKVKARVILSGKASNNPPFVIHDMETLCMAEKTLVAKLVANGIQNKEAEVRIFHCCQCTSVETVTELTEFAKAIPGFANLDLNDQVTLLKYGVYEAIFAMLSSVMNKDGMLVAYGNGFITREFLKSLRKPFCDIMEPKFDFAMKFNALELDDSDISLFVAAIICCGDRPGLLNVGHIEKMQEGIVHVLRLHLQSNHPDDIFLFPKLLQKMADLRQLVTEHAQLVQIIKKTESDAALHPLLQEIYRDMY

[2] = Oral bioavailability in CD-1 mouse at 3 mg/kg; format: ADME, organism-based; conditions: in vivo
[3] = Elimination half life in CD-1 mouse at 1 mg/kg, iv or 3 mg/kg, po; format: ADME, organism-based; conditions: in vivo, read-out: beta t1/2 (converted)
[4] = AUC (0 to infinity) in CD-1 mouse at 1 mg/kg, iv or 3 mg/kg, po; format: ADME, organism-based; conditions: in vivo
[5] = molecular target: T2, Peroxisome proliferator-activated receptor gamma (Homo sapiens, UniProt P37231); assay: Transactivation of GAL4-fused human PPARgamma expressed in African green monkey CV1 cells by luciferase reporter gene assay; format: cell-based, CV-1
T2 sequence (P37231 whole entry): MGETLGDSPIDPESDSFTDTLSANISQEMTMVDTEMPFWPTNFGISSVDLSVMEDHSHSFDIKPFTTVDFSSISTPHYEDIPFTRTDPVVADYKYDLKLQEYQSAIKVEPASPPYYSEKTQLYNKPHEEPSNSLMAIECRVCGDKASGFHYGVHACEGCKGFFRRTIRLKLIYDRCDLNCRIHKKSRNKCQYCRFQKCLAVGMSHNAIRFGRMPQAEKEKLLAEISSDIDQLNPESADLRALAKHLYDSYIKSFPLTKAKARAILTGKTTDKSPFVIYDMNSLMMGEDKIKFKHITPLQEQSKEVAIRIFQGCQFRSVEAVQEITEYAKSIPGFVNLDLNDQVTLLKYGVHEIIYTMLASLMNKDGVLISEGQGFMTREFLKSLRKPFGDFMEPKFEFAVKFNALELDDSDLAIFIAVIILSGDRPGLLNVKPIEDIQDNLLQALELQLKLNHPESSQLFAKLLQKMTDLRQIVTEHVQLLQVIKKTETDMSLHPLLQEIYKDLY

[6] = molecular target: Voltage-gated inwardly rectifying potassium channel KCNH2 (Homo sapiens, UniProt Q12809); assay: Inhibition of human ERG expressed in HEK293 cells by semi-automatic patch clamp assay; format: cell-based
Voltage-gated inwardly rectifying potassium channel KCNH2, sequence (Q12809 whole entry): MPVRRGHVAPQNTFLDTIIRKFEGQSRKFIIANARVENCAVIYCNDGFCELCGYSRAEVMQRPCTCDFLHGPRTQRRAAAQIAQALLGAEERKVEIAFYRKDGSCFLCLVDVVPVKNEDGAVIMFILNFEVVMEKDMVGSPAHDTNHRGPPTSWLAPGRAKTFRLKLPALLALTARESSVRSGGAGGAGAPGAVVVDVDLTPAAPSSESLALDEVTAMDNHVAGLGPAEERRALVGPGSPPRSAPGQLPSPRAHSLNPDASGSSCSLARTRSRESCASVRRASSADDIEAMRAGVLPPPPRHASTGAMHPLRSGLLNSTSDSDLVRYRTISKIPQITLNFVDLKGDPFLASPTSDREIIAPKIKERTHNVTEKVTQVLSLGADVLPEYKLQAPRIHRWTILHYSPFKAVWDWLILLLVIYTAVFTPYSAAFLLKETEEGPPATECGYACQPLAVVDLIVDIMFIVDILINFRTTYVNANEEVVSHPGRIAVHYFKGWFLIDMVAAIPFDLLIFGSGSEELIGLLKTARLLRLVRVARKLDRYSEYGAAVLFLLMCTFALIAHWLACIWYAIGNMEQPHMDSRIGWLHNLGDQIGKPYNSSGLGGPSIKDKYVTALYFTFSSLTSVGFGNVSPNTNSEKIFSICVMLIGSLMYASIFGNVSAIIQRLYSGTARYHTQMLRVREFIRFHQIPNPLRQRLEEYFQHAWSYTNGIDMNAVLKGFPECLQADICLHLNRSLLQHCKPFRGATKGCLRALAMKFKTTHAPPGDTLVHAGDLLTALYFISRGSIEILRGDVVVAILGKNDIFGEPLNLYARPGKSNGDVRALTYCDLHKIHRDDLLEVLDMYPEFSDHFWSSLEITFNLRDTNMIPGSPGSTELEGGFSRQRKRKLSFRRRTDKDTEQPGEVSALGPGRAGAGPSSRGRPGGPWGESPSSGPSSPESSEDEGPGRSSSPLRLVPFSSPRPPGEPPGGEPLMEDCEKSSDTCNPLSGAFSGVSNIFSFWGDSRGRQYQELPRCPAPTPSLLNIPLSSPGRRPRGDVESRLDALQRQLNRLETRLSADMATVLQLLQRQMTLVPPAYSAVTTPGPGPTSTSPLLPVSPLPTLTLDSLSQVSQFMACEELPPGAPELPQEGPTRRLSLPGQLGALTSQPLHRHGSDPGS

hERG (KCNH2), sequence (Q12809 whole entry, the tested form may be a part): as the sequence (Q12809 whole entry) above

In the case of `CN(Cc1ccccc1OCCCCCC(=O)O)C(=O)c1ccc(-c2ccco2)cc1`, the inhibition at 10 µM (hERG (KCNH2)) is reported as < 15%.
Compound `C/C(=C\COc1ccccc1Cc1sc(C)nc1-c1ccc2oc(C)cc2c1)CCC(=O)O` has an inhibition at 10 µM (hERG (KCNH2)) of 14%.
Compound `Cc1cc2cc(-c3ncc(C)n3Cc3ccccc3OCCCCCC(=O)O)ccc2o1` has an inhibition at 10 µM (hERG (KCNH2)) of 51%.
For `Cc1cnc(-c2ccc(C#N)cc2)n1Cc1ccccc1OCCC[C@@H](C)CC(=O)O`, the inhibition at 10 µM (hERG (KCNH2)) was 15%.
In the case of `C[C@H](CCCOc1ccccc1Cn1c(Cl)cnc1-c1ccc(C(F)(F)F)cc1)CC(=O)O`, the EC50 [1] is reported as > 100 µM, the bioavailability [2] is reported as 100% and the half-life [3] is reported as 3.5 h. The AUC(0-inf) [4] was 3880 ng·h/mL and the EC50 [5] was > 100 µM.
For `Cc1cnc(-c2ccc(-c3ccco3)cc2)n1Cc1ccccc1OCCCCCC(=O)O`, the IC50 [6] was 5.5 µM.
For `Cc1nc(-c2cc(F)c(-c3ccco3)c(F)c2)c(Cc2ccccc2OCCC[C@@H](C)CC(=O)O)s1`, the inhibition at 10 µM (hERG (KCNH2)) was 4%.
For `C/C(=C\COc1ccccc1Cc1c(C)cnn1-c1ccc(C(F)(F)F)cc1)CCC(=O)O`, the inhibition at 10 µM (hERG (KCNH2)) was 4%.
For `C[C@H](CCCOc1ccccc1Cn1c(C(F)(F)F)cnc1-c1ccc(C#N)cc1)CC(=O)O`, the EC50 [1] was > 100 µM, the inhibition at 10 µM (hERG (KCNH2)) was 4% and the AUC(0-inf) [4] was 14700 ng·h/mL. The EC50 [5] was > 100 µM.
For `C[C@H](CCCOc1ccccc1Cn1c(C(F)(F)F)cnc1-c1ccc(C(F)(F)F)cc1)CC(=O)O`, the EC50 [1] was > 100 µM, the bioavailability [2] was 70% and the inhibition at 10 µM (hERG (KCNH2)) was 5.7%. The half-life [3] was 5.8 h, the AUC(0-inf) [4] was 6960 ng·h/mL and the EC50 [5] was > 100 µM.
In the case of `Cc1cnc(-c2ccc(OC(F)(F)F)cc2)n1Cc1ccccc1OCCC[C@@H](C)CC(=O)O`, the IC50 [6] is reported as 10 µM.
